Test results from patent US20220125959A1, “PROSTATE-SPECIFIC MEMBRANE ANTIGEN (PSMA) INHIBITORS AS DIAGNOSTIC AND RADIONUCLIDE THERAPEUTIC AGENTS” (FIVE ELEVEN PHARMA INC., priority 2019, published 2022).
Where two headings read alike, the source gives them in different places.

Columns and labels:
[1] = biological target: PSMA (Homo sapiens, UniProt Q04609); experiment: PSMA competitive binding, PC-3 PIP cells with [125I]MIP-1095; set-up: expressed in transfected cells; host or cells: PC-3 PIP cells
Sequence of PSMA (Q04609 whole entry, species assumed): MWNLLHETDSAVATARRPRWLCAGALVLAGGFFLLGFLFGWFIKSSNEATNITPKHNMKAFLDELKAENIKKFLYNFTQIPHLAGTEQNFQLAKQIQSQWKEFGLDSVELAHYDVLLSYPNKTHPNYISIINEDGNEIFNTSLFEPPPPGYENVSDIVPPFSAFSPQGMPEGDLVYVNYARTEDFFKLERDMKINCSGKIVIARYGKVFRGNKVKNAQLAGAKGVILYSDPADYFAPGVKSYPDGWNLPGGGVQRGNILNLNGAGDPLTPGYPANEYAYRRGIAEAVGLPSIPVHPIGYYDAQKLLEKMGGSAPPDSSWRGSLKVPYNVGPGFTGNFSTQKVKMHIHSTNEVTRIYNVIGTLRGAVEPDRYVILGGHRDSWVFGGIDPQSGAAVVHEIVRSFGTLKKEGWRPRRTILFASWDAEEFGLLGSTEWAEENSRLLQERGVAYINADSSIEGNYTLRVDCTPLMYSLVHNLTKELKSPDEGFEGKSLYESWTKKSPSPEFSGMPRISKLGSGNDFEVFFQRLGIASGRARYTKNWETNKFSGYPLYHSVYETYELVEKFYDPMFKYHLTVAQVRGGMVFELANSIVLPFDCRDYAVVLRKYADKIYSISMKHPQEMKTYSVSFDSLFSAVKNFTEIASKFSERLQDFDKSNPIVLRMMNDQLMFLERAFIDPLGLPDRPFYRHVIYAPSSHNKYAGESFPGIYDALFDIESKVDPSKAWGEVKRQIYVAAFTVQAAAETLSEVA
Description: In vitro binding assays were carried out to determine the PSMA binding affinity of various compounds. By incubating PSMA positive cells either with: 1). LNCaP with 0.2 nM [^68Ga]PSMA-11 or [^125I]MIP-1095, as the ligand, in the presence of 10 different concentrations of competing ligands; non-specific binding was defined with 20 μM 2-PMPA (2-(phosphonomethyl)pentanedioic acid); or 2). PC-3 PIP cells with [^125I]MIP-1095 (0.18 nM diluted in PBS) in presence of different concentration of test compounds ([…] diluted in PBS containing 0.1% bovine serum albumin). Nonspecific binding (NSB) was defined with 2 μM the known PSMA inhibitor, PSMA-617. After incubation at 37° C. for 1 h, the bound and free fractions were separated by vacuum filtration through GF/B filters using a Brandel M-24R cell harvester. The filters were washed twice with cold Tris-HCl buffer (50 mM, pH=7.4), and the radioactivity on the filters was counted in a gamma counter (Wizard^2, Perkin-Elmer) with 50% efficiency. The nonspecific bound was less than 10% of the total bound. Data were analyzed using GraphPad Prism 6.0 with a nonlinear regression algorithm to obtain the half maximal inhibitory concentration (IC50).
The binding affinities to PSMA of the test compounds were measured by a competitive binding assay using either LNCap or PC-3 PIP cells suspension and the known radiotracers known to have high affinity and specificity to PSMA, [^68Ga]PSMA-11 or [^125I]MIP-1095. The IC50 values of four iodinated compounds, three DOTA, DOTAG and DOTA(GA)2 related compounds and two known PSMA inhibitors are shown in Table 1. Complexes of compound 4 and natural Ga and natural Lu were also tested. […] After labeling with radioisotope they are expected to bind to the tumor tissues over expressing PSMA binding sites.

[2] = test system: PC3-PIP (PSMA positive) and PC-3 tumors (PSMA negative); experiment: Biodistribution of [68Ga]4 in tumor bearing nude mice; format: in vivo, CD-1 male nude mice
Description: (§1) ^68Ga labeling: To 15 nmole ligand 4 (1 mg/mL DMSO) were added 20 μL of 2.0 N NaOAc, 500 μL ^68Ga-solution (2.25 mCi). The reaction was heated in a heating block at 90° C. for 10 minutes in a 3 mL closed vial. After cooling, the sample was analyzed by HPLC (HPLC: Eclise XDB C18 150×4.6 mm, gradient, 2 mL/min; A: 0.1% TFA in water; B: 0.1% TFA in ACN: 0-2 min 100% A; 2-4 min: from 0% to 100% B; 4-9 min: 100% B; 9-10 min: from 100% to 0% B). Radiochemical purity of [^68Ga]4 was >99% RCP (FIG. 1) and injected doses were stable at 2 hr after formulation.
For iv injection 150 μL of labeled solution was diluted with saline to 3 mL. Mice were injected with 150 μL of formulated dose. Injected radioactivity was 19-28 μCi and PSMA ligand amount was constant at 0.2 nmole/mouse.
Biodistribution of [^68Ga]4, [^177Lu]4 and [^177Lu]7 was determined in nude mice bearing PIP PC3 (PSMA positive) and PC3 (PSMA negative) tumors on the left and right shoulder, respectively, over a period of 192 h (Table 3a, 3b and 3c). […] The uptake in PC3 tumors (PSMA negative) of both ligands, [^177Lu]4 and [^177Lu]7, was clearly much lower than those of PC-3 PIP tumors (PSMA positive).

[3] = Stability of injected doses after formulation; format: physicochemical; settings: at 2 hr after formulation
Description: as §1
^177Lu labeling: To 10 μg ligand (1 mg/mL DMSO) were added 15 μL of 2.0 N NaOAc, 400 μL 0.05 N HCl, and 20 μL ^177Lu-solution (780 μCi (Capintec setting 450 (reading×10)). The reaction was heated with a heating block at 95° C. for 1 hour in a 3 mL closed vial. After cooling, the sample was analyzed by HPLC (HPLC: Eclipse XDB-C18 150×4.6 mm, gradient, 1 mL/min; A: 0.1% TFA in water; B: 0.1% TFA in ACN: 0-4 min A/B 85/15%; 4-11 min: from 85/15 to 30/70%; 11-14 min: from 30/70% to 85/15%). Radiochemical purity of [^177Lu]4 (FIG. 2) and [^177Lu]7 was >98% and injected doses were stable at 48 hr after formulation.
For iv injection 150 μL of labeled solution was diluted with saline to 3.75mL. Mice were injected with 150 μL of formulated dose. Injected radioactivity was 100 μCi and PSMA ligand amount was constant at 0.72 nmole/mouse.

[4] = n = 3 (a: n = 2), read-out: IC50 *(PC-3 PIP cells and [125I]MIP-1095)

O=C(O)CC[C@H](NC(=O)N[C@@H](CCCCNC(=O)[C@H](Cc1ccccc1)NC(=O)COc1ccc(C(=O)NCCCC[C@H](NC(=O)CNC(=O)CCC(C(=O)O)N2CCN(CC(=O)O)CCN(CC(=O)O)CCN(CC(=O)O)CC2)C(=O)O)cc1)C(=O)O)C(=O)O (stereo partly drawn) [Compound 38, (((1S)-1-Carboxy-5-((2S)-2-(2-(4-(((5S)-5-carboxy-5-(2-(4-carboxy-4-(4,7,10-tris(carboxymethyl)-1,4,7,10-tetraazacyclododecan-1-yl)butanamido)acetamido)pentyl)carbamoyl)phenoxy)acetamido)-3-phenylpropanamido)pentyl)carbamoyl)-L-glutamic acid]
IC50 [1, 4]: 28.1 ± 0.85 nM

O=C(O)CCC(C(=O)O)N1CCN(CC(=O)O)CCN(C(CCC(=O)NCC(=O)N[C@@H](Cc2ccc(OCC(=O)N[C@@H](Cc3ccccc3)C(=O)NCCCC[C@H](NC(=O)N[C@@H](CCC(=O)O)C(=O)O)C(=O)O)cc2)C(=O)O)C(=O)O)CCN(CC(=O)O)CC1.[68Ga] (stereo partly drawn) [[^68Ga]4]
Biodistribution: Blood ([2]; 30 min): 1.22 ± 0.06 % dose/g
Biodistribution: Bone ([2]; 30 min): 0.35 ± 0.01 % dose/g
Biodistribution: Brain ([2]; 30 min): 0.04 ± 0.01 % dose/g
Biodistribution: Heart ([2]; 30 min): 0.75 ± 0.12 % dose/g
Biodistribution: Intestine ([2]; 30 min): 0.48 ± 0.12 % dose/g
Biodistribution: Kidney ([2]; 30 min): 137.36 ± 12.92 % dose/g
Biodistribution: Liver ([2]; 30 min): 3.23 ± 0.31 % dose/g
Biodistribution: Lung ([2]; 30 min): 2.46 ± 0.37 % dose/g
Biodistribution: Muscle ([2]; 30 min): 0.51 ± 0.07 % dose/g
Biodistribution: PC3-PSMA- tumor ([2]; 30 min): 1.59 ± 0.27 % dose/g
Biodistribution: PIP-PSMA+ tumor ([2]; 30 min): 12.88 ± 2.08 % dose/g
Biodistribution: Pancreas ([2]; 30 min): 1.57 ± 0.93 % dose/g
Biodistribution: Skin ([2]; 30 min): 1.71 ± 0.22 % dose/g
Biodistribution: Spleen ([2]; 30 min): 7.19 ± 1.55 % dose/g
Biodistribution: Stomach ([2]; 30 min): 0.44 ± 0.28 % dose/g
Biodistribution: Blood ([2]; 1 hr): 0.65 ± 0.08 % dose/g
Biodistribution: Bone ([2]; 1 hr): 0.17 ± 0.01 % dose/g
Biodistribution: Brain ([2]; 1 hr): 0.03 ± 0.00 % dose/g
Biodistribution: Heart ([2]; 1 hr): 0.43 ± 0.06 % dose/g
Biodistribution: Intestine ([2]; 1 hr): 0.44 ± 0.13 % dose/g
Biodistribution: Kidney ([2]; 1 hr): 166.31 ± 18.62 % dose/g
Biodistribution: Liver ([2]; 1 hr): 2.87 ± 0.30 % dose/g
Biodistribution: Lung ([2]; 1 hr): 1.52 ± 0.28 % dose/g
Biodistribution: Muscle ([2]; 1 hr): 0.21 ± 0.05 % dose/g
Biodistribution: PC3-PSMA- tumor ([2]; 1 hr): 1.14 ± 0.25 % dose/g
Biodistribution: PIP-PSMA+ tumor ([2]; 1 hr): 13.86 ± 1.54 % dose/g
Biodistribution: Pancreas ([2]; 1 hr): 0.75 ± 0.13 % dose/g
Biodistribution: Skin ([2]; 1 hr): 0.64 ± 0.26 % dose/g
Biodistribution: Spleen ([2]; 1 hr): 4.60 ± 1.80 % dose/g
Biodistribution: Stomach ([2]; 1 hr): 0.34 ± 0.19 % dose/g
Biodistribution: Blood ([2]; 2 hr): 0.53 ± 0.11 % dose/g
Biodistribution: Bone ([2]; 2 hr): 0.19 ± 0.03 % dose/g
Biodistribution: Brain ([2]; 2 hr): 0.03 ± 0.00 % dose/g
Biodistribution: Heart ([2]; 2 hr): 0.25 ± 0.04 % dose/g
Biodistribution: Intestine ([2]; 2 hr): 0.38 ± 0.04 % dose/g
Biodistribution: Kidney ([2]; 2 hr): 116.41 ± 51.94 % dose/g
Biodistribution: Liver ([2]; 2 hr): 2.54 ± 0.16 % dose/g
Biodistribution: Lung ([2]; 2 hr): 1.05 ± 0.08 % dose/g
Biodistribution: Muscle ([2]; 2 hr): 0.14 ± 0.07 % dose/g
Biodistribution: PC3-PSMA- tumor ([2]; 2 hr): 0.74 ± 0.23 % dose/g
Biodistribution: PIP-PSMA+ tumor ([2]; 2 hr): 16.74 ± 2.75 % dose/g
Biodistribution: Pancreas ([2]; 2 hr): 0.50 ± 0.15 % dose/g
Biodistribution: Skin ([2]; 2 hr): 0.62 ± 0.31 % dose/g
Biodistribution: Spleen ([2]; 2 hr): 3.41 ± 2.46 % dose/g
Biodistribution: Stomach ([2]; 2 hr): 0.20 ± 0.09 % dose/g
Tumor uptake ([2]; suitable for PET imaging): excellent tumor uptake
Stability of injected doses [3]: stable

O=C(O)CC[C@H](NC(=O)N[C@@H](CCCCNC(=O)[C@H](Cc1ccccc1)NC(=O)[C@H](CCC(=O)O)NC(=O)[C@H](CCC(=O)O)NC(=O)c1ccc(I)cc1)C(=O)O)C(=O)O [Compound 18, (((S)-1-Carboxy-5-((S)-2-((S)-4-carboxy-2-((S)-4-carboxy-2-(4-iodobenzamido)butanamido)butanamido)-3-phenylpropanamido)pentyl)carbamoyl)-L-glutamic acid]
IC50 [1, 4]: 1.99 ± 0.06 nM

O=C(O)CC[C@H](NC(=O)N[C@@H](CCCCNC(=O)[C@H](Cc1ccccc1)NC(=O)[C@H](CCC(=O)O)NC(=O)c1ccc(I)cc1)C(=O)O)C(=O)O [Compound 17, (((S)-1-Carboxy-5-((S)-2-((S)-4-carboxy-2-(4-iodobenzamido)butanamido)-3-phenylpropanamido)pentyl)carbamoyl)-L-glutamic acid]
IC50 [1, 4]: 2.63 ± 0.13 nM

O=C(O)CC[C@H](NC(=O)N[C@@H](CCCCNC(=O)[C@H](Cc1ccccc1)NC(=O)COc1ccc(C[C@H](NC(=O)CNC(=O)CCC2C(=O)[O][Lu-4]345678[O]C(=O)CN9CC[N+]23CC[N+]4(CC[N+]5(CC9)C(CCC(=O)[OH+]6)C(=O)[O]7)CC(=O)[O]8)C(=O)O)cc1)C(=O)O)C(=O)O (stereo partly drawn) [[^natLu]4]
IC50 [1]: 18.7 ± 0.3 nM

O=C([O-])CN1CCN(C(CCC(=O)NCC(=O)N[C@@H](Cc2ccc(OCC(=O)N[C@@H](Cc3ccccc3)C(=O)NCCCC[C@H](NC(=O)N[C@@H](CCC(=O)O)C(=O)O)C(=O)O)cc2)C(=O)O)C(=O)[O-])CCN(CC(=O)[O-])CCN(C(CCC(=O)O)C(=O)O)CC1.[Ga+3] (stereo partly drawn) [[^natGa]4, (4S,11S,15S)-4-benzyl-1-(4-((2S)-2-(2-(4-(4,10-bis(carboxymethyl)-7-(1,3-dicarboxypropyl)-1,4,7,10-tetraazacyclododecan-1-yl)-4-carboxylatebutanamido)acetamido)-2-carboxyethyl)phenoxy)-2,5,13-trioxo-3,6,12,14-tetraazaheptadecane-11,15,17-tricarboxylate gallium]
IC50 [1, 4]: 22.2 ± 2.1 nM

O=C(O)CCC(C(=O)O)N1CCN(CC(=O)O)CCN(C(CCC(=O)N[C@@H](CCC(=O)O)C(=O)N[C@@H](CCC(=O)O)C(=O)N[C@@H](Cc2ccc(OCC(=O)N[C@@H](Cc3ccccc3)C(=O)NCCCC[C@H](NC(=O)N[C@@H](CCC(=O)O)C(=O)O)C(=O)O)cc2)C(=O)O)C(=O)O)CCN(CC(=O)O)CC1 (stereo partly drawn) [Compound 29, (((1S)-5-((2S)-2-(2-(4-((2S)-2-((2S)-2-((2S)-2-(4-(4,10-Bis(carboxymethyl)-7-(1,3-dicarboxypropyl)-1,4,7,10-tetraazacyclododecan-1-yl)-4-carboxybutanamido)-4-carboxybutanamido)-4-carboxybutanamido)-2-carboxyethyl)phenoxy)acetamido)-3-phenylpropanamido)-1-carboxypentyl)carbamoyl)-L-glutamic acid]
IC50 [1, 4]: 22.6 ± 1.59 nM

O=C(O)CCc1ccc(O)c(CN(CCN(CC(=O)O)Cc2cc(CCC(=O)NCCCCCC(=O)NCCCC[C@H](NC(=O)N[C@@H](CCC(=O)O)C(=O)O)C(=O)O)ccc2O)CC(=O)O)c1 [PSMA-11, Glu-NH—CO—NH-Lys-(Ahx)-(HBED-CC), reference compound]
IC50 [1, 4]: 47.8 ± 3.16 nM
